# According to patent publication US7781565B2 (priority 2006, dated 2010):
# Entries after “also recorded” stand apart in the source; their conditions may differ.
# Test system: NCI-60 cell lines
# Type: cell-based, human
Substance,Cell Line with which the peptide (and its tripeptide motif) is associated,Cell Line (NCI-60 cell line the peptide is associated with),Cell Line (NCI-60 cell line the peptide and its motif are associated with),Cell Line the peptide is associated with (peptide recovered from phage library selection on this NCI-60 cell line)
GLGVSGV,Hop-62-Lung,,,
VEEGRLR,,SW620-Colon,,
LRASLLW,,HCC-2998-Colon,,
PSVGVRA,H322-Lung,,,
GSSELSR,,,DU-145 Prostate,
TLGGLRT,,SF-295 CNS,,
VLLSAGL,,,,RXF393 Renal
LRFRRGV,,,PC3 Prostate,
SLLRRLE,,,,TK-10 Renal
GTGAAVF,,,,RXF393 Renal
RRLSYFH,,HT-29 Colon,,
SVVRRGS,,,,ACHN Renal
GSVSHRR,,,SK-OV-3-3 Ovarian,
GLWAAVL,,,,TK-10 Renal
SSGGRSS,,MALME-3M Melanoma,,
DTPAGRL,,,,MDA-MB-231 Breast
TLTAAVF,,,UACC 257 Melanoma,
VGRAGGL,,,,MDA-MB-231 Breast
RYSMASL,,,SK-MEL-5 Melanoma,
VRGSVRA,H23-Lung,,,
IGVRGFF,Molt-4-Leukemia,,,
VAVGVRS,,,,HS 578 T Breast
RGLRSVN,H226-Lung,,,

Substance,Cell Line with which the peptide (and its tripeptide motif) is associated,Cell Line (NCI-60 cell line the peptide is associated with),Cell Line (NCI-60 cell line the peptide and its motif are associated with),Cell Line the peptide is associated with (peptide recovered from phage library selection on this NCI-60 cell line)
SRSCGGL,,LOX-IMVI Melanoma,,
ARGTMTG,,,,ACHN Renal
SGVSNPG,,,,MDA-MB-231 Breast
GGLMPRY,,,,BT-549 Breast
GVWLRGS,,,,RXF393 Renal
TATGGLL,,,OVCAR-8 Ovarian,
PSLLRGF,,,UACC62 Melanoma,
IGSGVGV,,,,NCI/ADR-RES Breast
FLLRSSF,SR Leukemia,,,
LERAVRT,,HT-29 Colon,,
FLLSRSA,,,,NCI/ADR-RES Breast
LLSLDPG,,,SK-MEL-2 Melanoma,
ELHPRGV,K-562-Leukemia,,,
SGVGSSL,EKVX-Lung,,,
ACTGVSR,,,,RXF393 Renal
LVPLVSG,,,SK-OV-3-3 Ovarian,
TGRVVRR,CCRF-CEM Leukemia,,,
LDRSGGL,,HCT-116 Colon,,
DVRGRVW,H460-Lung,,,
AAVGTAL,,,,RXF393 Renal
LIGGVLH,,,IGROV1 Ovarian,
GSVSDRF,,SF-268 CNS,,
GVLEGRR,,,UACC 257 Melanoma,

Substance,Cell Line with which the peptide (and its tripeptide motif) is associated,Cell Line (NCI-60 cell line the peptide is associated with),Cell Line (NCI-60 cell line the peptide and its motif are associated with),Cell Line the peptide is associated with (peptide recovered from phage library selection on this NCI-60 cell line)
GSGHSFA,,KM-12C Colon,,
TLGSVRV,,,SK-MEL-5 Melanoma,
GRGDRGV,,,SK-MEL-28 Melanoma,
TRASRRG,,SNB-75 CNS,,
VYWWGVS,,,,A498 Renal
CMAGSQD,,,,SN12C Renal
SLGLRNQ,CCRF-CEM Leukemia,,,
SPTGGRR,,LOX-IMVI Melanoma,,
WFGAVGL,Molt-4-Leukemia,,,
GGSALFG,,HT-29 Colon,,
QVLLRSF,Hop-62-Lung,,,
INWAGLS,Hop-92-Lung,,,
LRGSRQF,,,SK-MEL-28 Melanoma,
TGLLRLY,,,,RXF393 Renal
LACRGPS,,,PC3 Prostate,
YYAGGLK,Hop-62-Lung,,,
GVRGGGD,,,,CAIK-1 Renal
YGQYGGL,,HCT-15 Colon,,
SWGSGGS,Hop-92-Lung,,,
WFSWLVS,H460-Lung,,,
GVLHSIA,K-562-Leukemia,,,
RGVASRS,H460-Lung,,,
GRLVWGL,,HCT-116 Colon,,

Substance,Cell Line with which the peptide (and its tripeptide motif) is associated,Cell Line (NCI-60 cell line the peptide is associated with),Cell Line (NCI-60 cell line the peptide and its motif are associated with),Cell Line the peptide is associated with (peptide recovered from phage library selection on this NCI-60 cell line)
LLSILKA,,,IGROV1 Ovarian,
IDLVSPG,,,OVCAR-8 Ovarian,
RALGAAS,,,SK-OV-3-3 Ovarian,
TRDGVRW,,,,RXF393 Renal
GLGLRLG,,,OVCAR-8 Ovarian,
TEGSVTV,HL-60-Leukemia,,,
LEVGRLF,,,SK-OV-3-3 Ovarian,
LGVREVG,,,,HS 578 T Breast
SGSSVRY,,SNB-75 CNS,,
GGRLLRA,,,DU-145 Prostate,
GLRGSVW,,COLO-205-Colon,,
SVDRGVI,,LOX-IMVI Melanoma,,
HNGRLEV,Hop-62-Lung,,,
WARAGGF,,SNB-19 CNS; also recorded: SF-539 CNS,,
LGGSRDL,,HCT-116 Colon,,
LVGRGVR,,SF-268 CNS,,
RASRIGL,,,,TK-10 Renal
NRSSHCG,,,M14 Melanoma,
LYVDASL,,,,MDA-MB-435-Breast
DRGVPGL,HL-60-Leukemia,,,
PAVAGST,,,,HS 578 T Breast
GGGRRAL,,,PC3 Prostate,
YSIMRVS,,SF-295 CNS,,

Substance,Cell Line with which the peptide (and its tripeptide motif) is associated,Cell Line (NCI-60 cell line the peptide is associated with),Cell Line (NCI-60 cell line the peptide and its motif are associated with),Cell Line the peptide is associated with (peptide recovered from phage library selection on this NCI-60 cell line)
SGAGAAF,,,786-0 Renal,
ISPRSSG,,HCT-15 Colon,,
AGGPSSY,,,,UO31 Renal
AGGWWVG,,HCT-15 Colon,,
GAVNTPA,,,SK-MEL-2 Melanoma,
GEGRLCG,,,,CAIK-1 Renal
GYARGSG,,,,RXF393 Renal
AGGWRGR,,SF-268 CNS,,
GDRRLVS,,,,NCI/ADR-RES Breast
WLLSSEI,,,PC3 Prostate,
SSGPRSS,Hop-62-Lung,,,
LRPGLRS,,,,CAIK-1 Renal
ASGTLLR,,,SK-MEL-28 Melanoma,
RKPGGGR,,HT-29 Colon,,
VGVSQEW,,,,TK-10 Renal
LRYNLRS,RPMI-8226-Leukemia,,,
YSGSSDF,,COLO-205-Colon,,
DGLVPVA,,,IGROV1 Ovarian,
QGRVNVK,H226-Lung,SNB-19 CNS; also recorded: SF-539 CNS,,
